The results in this text go back to ChEMBL document CHEMBL1125889, “8-(Dicyclopropylmethyl)-1,3-dipropylxanthine: a potent and selective adenosine A1 antagonist with renal protective and diuretic activities” (J Med Chem, 1991).

The structures appear in SMILES notation.

Data set [1] addresses T1, Adenosine A2 receptor (Rattus norvegicus, UniProt P29276+P30543). Format: cell membranes, Membrane.
The next data set is filed under the species Cavia porcellus. The experiment in a line: Ki ratio evaluated as the Ki of A2 to that A1 receptor values.
Data set [2] addresses T2, Adenosine receptor A1 (Cavia porcellus, UniProt P47745).
T2 sequence (P47745 whole entry): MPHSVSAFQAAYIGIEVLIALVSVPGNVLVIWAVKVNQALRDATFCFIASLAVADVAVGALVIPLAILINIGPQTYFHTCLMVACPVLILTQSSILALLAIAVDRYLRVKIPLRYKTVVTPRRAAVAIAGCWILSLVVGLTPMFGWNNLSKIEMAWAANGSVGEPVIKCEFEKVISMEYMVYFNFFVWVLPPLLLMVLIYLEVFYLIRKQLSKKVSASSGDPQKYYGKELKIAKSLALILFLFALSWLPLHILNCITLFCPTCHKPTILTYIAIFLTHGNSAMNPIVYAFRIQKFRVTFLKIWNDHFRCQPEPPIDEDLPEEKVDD
The experiment in a line: Binding affinity carried out with [3H]cyclohexyladenosine in guinea pig forebrain membranes against adenosine A1 receptor. The format is cell membranes, Brain membranes.

Data set [3] is filed under the species Rattus norvegicus. To be noted: in vivo, po, 6 h.
Description: Compound administered at a dose of 6.25 mg/25 mL/kg orally to rats, urine collected for 6 hr and measured for urine volume.
Data set [4] addresses T2, Adenosine receptor A1.
Description: Inhibition of [3H]cyclohexyladenosine binding to guinea pig forebrain membranes Adenosine A1 receptor
Data set [5] is filed under the species Rattus norvegicus. To be noted: in vivo, po, 6 h. The source holds these as a separate data set.
Description: Compound administered at a dose of 6.25 mg/25 mL/kg orally to rats, urine collected for 6 hr and measured for K+ excretion.
For data set [6], the species on record is Rattus norvegicus. To be noted: in vivo, po, 6 h. This is another data set of the same source.
Description: Compound administered at a dose of 6.25 mg/25 mL/kg orally to rats, urine collected for 6 hr and measured for Na+ excretion.
Data set [7] addresses T1, Adenosine A2 receptor. Format: cell membranes, Membrane. The source holds these as a separate data set.
Data set [8] deals with Rattus norvegicus. The experiment in a line: Compound was evaluated for Serum creatinine concentration in glycerol injected rats treated with 10 mg/kg administered intraperitoneally. The format is functional, organism-based. Set-up: dose 10 mg/kg.
Data set [9] deals with Rattus norvegicus. The experiment in a line: Compound was evaluated for Serum creatinine concentration in glycerol injected rats treated with 1 mg/kg administered intraperitoneally. The format is functional, organism-based. Set-up: dose 1 mg/kg.

Consider `CCCn1c(=O)c2nc(C(C)Cc3ccccc3)[nH]c2n(CCC)c1=O` (centres undefined), for which the Ki (commonly a dissociation constant, usually derived from enzyme kinetics or from competition with a known ligand) on Adenosine A2 receptor [1] is on record as 480 nM. In addition, the Ki ratio in the data set filed under Cavia porcellus is 1.8.
In turn, `CCCC(CCC)c1nc2c([nH]1)c(=O)n(CCC)c(=O)n2CCC` registered a Ki on Adenosine receptor A1 [2] of 78 nM.
As to `CCCn1c(=O)c2nc(C(CC)CC)[nH]c2n(CCC)c1=O`, the inhibition constant (Ki) at Adenosine A2 receptor [1] is reported as 570 nM. Further, in the data set filed under Cavia porcellus, the Ki ratio was 30.
The compound `CC(C)Cn1c(=O)n(C)c(=O)c2[nH]c(C(C3CC3)C3CC3)nc21` had a Ki on Adenosine receptor A1 [2] of 12 nM. In the data set listed under Cavia porcellus, the Ki ratio is 34.
Compound `CCCn1c(=O)c2nc(C(C3CC3C)C3CC3C)[nH]c2n(CCC)c1=O` (centres undefined) displayed a Ki at Adenosine A2 receptor [1] of 1000 nM. Further, the Ki ratio in the data set filed under Cavia porcellus was 100.
For `CCCn1c(=O)c2nc(C(c3ccc(F)cc3)C3CC3)[nH]c2n(CCC)c1=O` (centres undefined) the same measures were 1400 nM and 5.6.
`CCCn1c(=O)c2[nH]c(C(C3CC3C)C3CC3C)nc2n(CCC)c1=O` (centres undefined) showed a Ki on Adenosine receptor A1 [2] of 9.7 nM.
In turn, `CCCn1c(=O)c2[nH]c(C(C)Cc3ccccc3)nc2n(CCC)c1=O` (centres undefined) gave a Ki at Adenosine receptor A1 [2] of 260 nM.
On Adenosine receptor A1 [2], `CCCn1c(=O)c2c(nc(C(C3CC3)C3CC3)n2CC)n(CCC)c1=O` returned a Ki of 1600 nM. For the same compound, the Ki ratio in the data set filed under Cavia porcellus was 8.8.
In the case of `Cn1c(=O)c2c(ncn2C)n(C)c1=O` [CAFFEINE], in the data set filed under Rattus norvegicus [3], the Urine volume is reported as 0.92 ml 6hr-1 100g-1. The compound also showed an inhibition constant Ki at Adenosine receptor A1 [4] of over 100000 nM. For the same compound, the “K+ excretion” value in the data set filed under Rattus norvegicus [5] is given as 0.99 ml 6hr-1 100g-1; in the data set filed under Rattus norvegicus [6] it was 1.1 ml 6hr-1 100g-1.
`CCCCn1c(=O)c2nc(C(C3CC3)C3CC3)[nH]c2n(CCCC)c1=O` returned a Ki at Adenosine receptor A1 [2] of 5.5 nM. Also, the Ki ratio in the data set listed under Cavia porcellus is 80.
Regarding `CCCn1c(=O)c2nc(C(c3ccccc3)C3CC3)[nH]c2n(CCC)c1=O` (centres undefined), the values for the Ki on Adenosine A2 receptor [1] and on Adenosine receptor A1 [2] were 1800 nM and 150 nM, respectively. Also, the Ki ratio in the data set listed under Cavia porcellus worked out at 12.
In the case of `CCCn1c(=O)c2nc(C(c3ccccc3)C3CCCC3)[nH]c2n(CCC)c1=O` (centres undefined), the Ki at Adenosine A2 receptor [1] came to 4000 nM. Further, the Ki ratio in the data set filed under Cavia porcellus worked out at 10.
`CCCn1c(=O)c2[nH]c(C(C)CC)nc2n(CCC)c1=O` (centres undefined): the Ki on Adenosine receptor A1 [2] stood at 25 nM.
As to `CCCC(CCC)c1nc2c(=O)n(CCC)c(=O)n(CCC)c2[nH]1`, the Ki at Adenosine A2 receptor [1] was determined as 590 nM. Further, in the data set filed under Cavia porcellus, the Ki ratio worked out at 7.6.
As for `CCCn1c(=O)c2nc(C(CC)c3ccccc3)[nH]c2n(CCC)c1=O` (centres undefined), the Ki on Adenosine A2 receptor [1] came out at 1100 nM; on Adenosine receptor A1 [2], 100 nM. In the data set filed under Cavia porcellus, the Ki ratio was 11.
On Adenosine A2 receptor [1], `CCCn1c(=O)c2nc(C(C)CC)[nH]c2n(CCC)c1=O` (centres undefined) had a Ki of 1200 nM. Also, in the data set filed under Cavia porcellus, the Ki ratio was determined as 48.
On to `CCCn1c(=O)c2nc(C(c3ccc(OC)cc3)C3CC3)[nH]c2n(CCC)c1=O` (centres undefined), for which the Ki on Adenosine receptor A1 [2] stood at 250 nM; on Adenosine A2 receptor [7] it was 2200 nM. Moreover, the Ki ratio in the data set listed under Cavia porcellus came to 8.8.
In the case of `CCCn1c(=O)c2nc[nH]c2n(CCC)c1=O`, on Adenosine receptor A1 [4], the Ki was determined as 1200 nM.
For `CCCn1c(=O)c2nc(C(C)C)[nH]c2n(CCC)c1=O`, the Ki on Adenosine A2 receptor [1] was found to be 1500 nM; at Adenosine receptor A1 [2] it was 49 nM. The Ki ratio in the data set listed under Cavia porcellus turned out to be 31.
For `CCCn1c(=O)c2nc(C(C)N)[nH]c2n(CCC)c1=O` (centres undefined) the same measures were over 100000 nM, 3000 nM and over 33.
Compound `NS(=O)(=O)c1cc(C(=O)O)c(NCc2ccco2)cc1Cl` yielded a Serum creatinine conc in the data set with Rattus norvegicus [8] of 4.17 mg/dL.
For `CCCn1c(=O)c2c(nc(C(C3CC3)C3CC3)n2C)n(CCC)c1=O`, the affinity on Adenosine receptor A1 [2] corresponds to a Ki of 7400 nM. Moreover, in the data set listed under Cavia porcellus, the Ki ratio was determined as 3.9.
Turning to `CCn1c(=O)c2[nH]c(C(C3CC3)C3CC3)nc2n(CC)c1=O`, at Adenosine receptor A1 [2], the Ki came to 13 nM.
On Adenosine receptor A1 [2], `Cn1c(=O)c2nc(C(C3CC3)C3CC3)[nH]c2n(C)c1=O` returned a Ki of 81 nM. The Ki ratio in the data set filed under Cavia porcellus turned out to be 33.
`Cn1c(=O)c2[nH]cnc2n(C)c1=O.O` [THEOPHYLLINE] registered a Urine volume in the data set filed under Rattus norvegicus [3] of 1.42 ml 6hr-1 100g-1. The “K+ excretion” value in the data set filed under Rattus norvegicus [5] came to 1.16 ml 6hr-1 100g-1. Besides, the Serum creatinine conc in the data set with Rattus norvegicus [8] was 5.32 mg/dL. Moreover, in the data set filed under Rattus norvegicus [6], the “Na+ excretion” value worked out at 1.52 ml 6hr-1 100g-1.
In the data set on Rattus norvegicus [9], `CCCn1c(=O)c2[nH]c(C3CCCC3)nc2n(CCC)c1=O` [1,3-DIPROPYL-8-CYCLOPENTYLXANTHINE [DPCPX]] had a Serum creatinine conc of 3.75 mg/dL. The Urine volume in the data set listed under Rattus norvegicus [3] was determined as 1.87 ml 6hr-1 100g-1. The “K+ excretion” value in the data set listed under Rattus norvegicus [5] is 1.26 ml 6hr-1 100g-1. Further, the “Na+ excretion” value in the data set filed under Rattus norvegicus [6] was found to be 1.98 ml 6hr-1 100g-1.
`CCCn1c(=O)c2nc(C(c3ccccc3)c3ccccc3)[nH]c2n(CCC)c1=O` registered an inhibition constant (Ki) on Adenosine A2 receptor [7] of over 100000 nM. For the same compound, the Ki ratio in the data set listed under Cavia porcellus is over 48.
Regarding `CCCn1c(=O)c2[nH]c(C(c3ccccc3)C3CCCC3)nc2n(CCC)c1=O` (centres undefined), at Adenosine receptor A1 [2], the Ki was 400 nM.
`CCCn1c(=O)[nH]c(=O)c2[nH]c(C(C3CC3)C3CC3)nc21`: the Ki on Adenosine A2 receptor [1] is over 100000 nM; at Adenosine receptor A1 [2], 1300 nM. For the same compound, in the data set listed under Cavia porcellus, the Ki ratio was over 77.
In the case of `CCCn1c(=O)c2nc(C(C3CCCCC3)C3CCCCC3)[nH]c2n(CCC)c1=O`, the Ki at Adenosine A2 receptor [1] and on Adenosine receptor A1 [2] was over 100000 nM each time.
Turning to `CCCn1c(=O)c2[nH]c(C(C)Cc3ccc(OC)cc3)nc2n(CCC)c1=O` (centres undefined), on Adenosine receptor A1 [2], the Ki was 220 nM.
Take `CCCn1c(=O)c2nc(C(C)Cc3ccc(OC)cc3)[nH]c2n(CCC)c1=O` (centres undefined): at Adenosine A2 receptor [1], the Ki stood at 580 nM. In the data set filed under Cavia porcellus, the Ki ratio is 2.6.
For the compound `CCCn1c(=O)c2nc(C(CC)Oc3ccccc3)[nH]c2n(CCC)c1=O` (centres undefined), the values for the Ki on Adenosine A2 receptor [1] and at Adenosine receptor A1 [2] were 3300 nM and 900 nM, respectively. Moreover, in the data set filed under Cavia porcellus, the Ki ratio was 3.7.
Turning to `CCCn1c(=O)c2nc(C(C3CC3)C3CC3)[nH]c2n(CCC)c1=O`, the Serum creatinine conc in the data set with Rattus norvegicus [9] turned out to be 2.99 mg/dL. For the same compound, in the data set filed under Cavia porcellus, the Ki ratio turned out to be 140.
For `CCn1c(=O)c2nc(C(C3CC3)C3CC3)[nH]c2n(CC)c1=O`, in the data set filed under Cavia porcellus, the Ki ratio was found to be 53.
Regarding `CCCn1c(=O)c2[nH]c(C(c3ccc(F)cc3)C3CC3)nc2n(CCC)c1=O` (centres undefined), the inhibition constant Ki at Adenosine receptor A1 [2] is 250 nM.
The same measure, in the same setting: with `CCCn1c(=O)c2[nH]c(C(c3ccccc3)c3ccccc3)nc2n(CCC)c1=O` the figure was 2100 nM.
Consider `CCCn1c(=O)c2c(nc(C(C3CC3)C3CC3)n2CCC)n(CCC)c1=O`, for which, at Adenosine receptor A1 [2], the Ki stood at 13000 nM. Moreover, the Ki ratio in the data set listed under Cavia porcellus came to 0.48.
